# Where two headings read alike, the source gives them in different places.
# Legend:
# [1] = mean particle diameter
# [2] = pH measurement of 0.1 M aqueous solutions; format: physicochemical; details: 0.1 M in millipore water, r.t., average of at least three measurements
# Description: For the pH measurements, a Seven2Go portable pH meter S2 (pH measuring-range: −2 to 20; resolution: 0.01) with an InLab Ultra Micro-ISM electrode (measuring range: pH −1 to pH 11; low temperature membrane glass type; ceramic diaphragm; reference system with Ag^+ ion trap by argenthal) as well as with an in-lab routine pH electrode (measuring range: pH 0 to pH 14; ceramic diaphragm; reference system with Ag^+ ion trap by argenthal) from Mettler-Toledo AG (Analytical, Switzerland) was used.
# For sake of comparability, compounds of the same loading ratio n=2, which is 2:1 of the loaded carboxylic acid with respect to the carrier carboxylic acid, were selected for this analysis. […] The analytes were dissolved in millipore water, stirred for 5 minutes in an airtight vial to perform the pH measurements thereafter at r.t. All measurements were performed at 0.1 molar (M) concentration of the samples, which is 0.1 mol per liter (mol/L).
# For sake of reliability, every result stated is the average of at least three single measurements. […] The numbers 1-73 (nr., first row) are used as an assignment for the 73 pairs, comprising the compound of invention (third row), the corresponding carrier carboxylic acid (fourth row) and the loaded carboxylic acid (fifth row), as used in the FIG. 6.
# [3] = Thermal analysis (TGA/DTA); format: physicochemical
# Procedure: Thermal analysis was carried out with a Linseis STA 1600 simultaneous thermal analyzer to determine simultaneous changes of weight (TGA signal) and caloric measurable transformations (DTA signal) in a temperature range between r.t. and 300° C.
# [4] = test system: total bacteria count (TBC); details: forage, 0.5 wt % topical, r.t., 31 days
# Procedure: (§1) All tests were conducted under equal conditions. […] The additives were dosed at 0.5 wt % and were applied topically to the samples. […] The preservation effectiveness was established by testing for total bacteria count (TBC), yeast/fungi count and Enterobacteria/β-Glucoronidase-positive-Enterobacteria (E/β).
# yeast/fungi = test: Silage preservation: yeast/fungi count; details: forage, 0.5 wt % topical, r.t., 31 days
# Procedure: as §1
# [5] = test system: Enterobacteria/β-Glucoronidase-positive-Enterobacteria (E/β); test: Silage preservation: E/β count; details: forage, 0.5 wt % topical, r.t., 31 days
# Procedure: as §1
# [6] = Application as additive in liquid shaving soap
# Description: The mix was stirred with hard soap pieces remaining undissolved and placed for 50 seconds at 600 W in a microwave oven. […] The mixture was placed for 80 seconds in a microwave at 600 W. Thereafter the resulting mixture was hand-blended and filled into a jar for testing and storage.
Structure (SMILES),pH values compound [2],TBC [4],yeast count (yeast/fungi),E/β count [5],stability (>24 h) [6],further results
"CC(=O)O.CC(=O)O.CC(=O)[O-].CC(=O)[O-].[Ca+2] [CaAc-HAc [2], calcium acetate with loaded acetic acid]",5.05,,,,,"dav [1]: 221 μm; dav ([1]; listed as CaAc—HAc [2]): approximately 220 μm; thermal stability of the carrier carboxylic acid salt ([3]; TGA/DTA between r.t. and 300° C.): ≤ 300 °C; first loss of weight (TGA) ([3]; partially hydrated sample prior drying, 25-135° C.): −7.0 wt % of total weight; second stage of weight-loss (TGA) ([3]; partially hydrated sample prior drying, 135-300° C.): 11.7 wt % of the total weight; overall loss of weight (TGA) ([3]; partially hydrated sample, between r.t. and 300° C.): 18.74%"
"O=CO.O=CO.O=C[O-].O=C[O-].[Ca+2] [CaFo-HFo [2], calcium formate with loaded formic acid]",5.19,dramatically reduce,dramatically reduce,dramatically reduce,,
"CCC(=O)O.CCC(=O)O.O=C[O-].O=C[O-].[Ca+2] [CaFo-HProp [2], calcium formate with loaded propionic acid]",5.79,dramatically reduce,dramatically reduce,dramatically reduce,,growth of yeasts (yeast/fungi): completely inhibit; growth of β-Glucoronidase-positive-Enterobacteria (especially E. coli) [5]: completely inhibit
"CC(O)C(=O)O.CC(O)C(=O)O.O=C([O-])c1ccccc1O.O=C([O-])c1ccccc1O.[Ca+2] [CaSal-HLac [2], calcium salicylate with loaded lactic acid]",3.43,,,,yes,
O=C([O-])CC(O)(CC(=O)[O-])C(=O)[O-].O=C([O-])CC(O)(CC(=O)[O-])C(=O)[O-].[Ca+2].[Ca+2].[Ca+2] [calcium citrate],,,,,,"stability (>24 h) ([6]; liquid shaving soap, additive 1 or 2 % wt): yes"
O=C(O)CC(O)C(=O)O (stereo not drawn) [malic acid],,,,,no,
